Reference: patent publication US20180193409A1, “PEPTIDYL TPOR ANTAGONISTS AND USES THEREOF” (POLYMERS CRC LIMITED, priority 2015, published 2018)
Bridge positions count the residues as written; N and C are the ends. Peptide text beside a SMILES is read from it. I, II: the chains in the order shown.

Tests used:
[1] = molecular target: T1, receptor for human TPO (c-Mpl) (Homo sapiens, UniProt P40238); test: Antagonist assay: proliferation of FD-Mpl cells in media supplemented with rhTPO (ATP-luminescence); assay type: cell-based; settings: murine FD-Mpl cells, 6 or 10 ng/mL rhTPO (LCP also 30 ng/mL), 24 hours; read-out: concentration at which the decrease in normalised cell proliferation occurred (estimated EC50, antagonist assay)
T1 construct: expressed in transfected cells; host or cells: FD-Mpl (murine, derived from FDCP-1)
T1 sequence (P40238 26-635): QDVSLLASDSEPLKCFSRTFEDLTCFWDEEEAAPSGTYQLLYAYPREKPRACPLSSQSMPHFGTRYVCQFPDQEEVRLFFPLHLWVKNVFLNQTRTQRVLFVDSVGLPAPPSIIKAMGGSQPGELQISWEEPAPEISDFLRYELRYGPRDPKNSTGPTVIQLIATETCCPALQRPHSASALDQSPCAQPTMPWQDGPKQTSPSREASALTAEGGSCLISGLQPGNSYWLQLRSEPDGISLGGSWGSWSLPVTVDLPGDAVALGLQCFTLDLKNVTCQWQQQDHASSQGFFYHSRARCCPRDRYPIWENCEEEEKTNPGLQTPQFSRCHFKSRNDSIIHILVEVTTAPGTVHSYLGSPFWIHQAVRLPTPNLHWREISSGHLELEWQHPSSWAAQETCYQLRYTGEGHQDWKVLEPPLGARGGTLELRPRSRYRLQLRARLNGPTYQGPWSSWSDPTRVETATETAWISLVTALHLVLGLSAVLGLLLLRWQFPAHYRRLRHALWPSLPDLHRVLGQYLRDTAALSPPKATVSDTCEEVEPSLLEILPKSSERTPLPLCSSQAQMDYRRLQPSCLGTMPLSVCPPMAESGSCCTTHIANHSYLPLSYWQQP
Method: Bioactivity testing was carried out as follows. All compounds were tested on a murine TPO-dependent cell line FD-Mpl. FD-Mpl cells are derived from the haemopoietic growth factor dependent cell line FDCP-1 and express the receptor for human TPO (c-Mpl)—(as per Winkler, D., Riches, A., Condie, G., Tarasova, A., Andrade, J., White, J., Cablewski, T., Werkmeister, J., Haylock, D. and Meagher, L., ACS Chemical Biology 2010, DOI: 10.1021/cb100100u). […] FD-Mpl cells were counted and resuspended in a mix of cell culture medium with added peptide of interest and incubated at 4° C. for 2 h (for the agonist assay this brief incubation at 4° C. for 2 h was omitted). […]
Cells were then incubated at 37° C. for 24 hours (or 48 hours in the case of the agonist assay) and cell proliferation was assessed as follows. Cells were plated in quadruplicate onto white luminescence detection plates and cell proliferation and viability were assessed by an ATP-luminescence detection assay (CellTiter Glo Luminescent Cell Viability Assay Kit, Promega). Cells were also plated in triplicate and cell morphology was assessed using phase contrast microscopy. […]

[2] = molecular target: T1, receptor for human TPO (c-Mpl); test: Agonist assay: proliferation of FD-Mpl cells in the absence of rhTPO (ATP-luminescence); assay type: cell-based; settings: no rhTPO
Method: Bioactivity testing was carried out as follows. All compounds were tested on a murine TPO-dependent cell line FD-Mpl. FD-Mpl cells are derived from the haemopoietic growth factor dependent cell line FDCP-1 and express the receptor for human TPO (c-Mpl)—(as per Winkler, D., Riches, A., Condie, G., Tarasova, A., Andrade, J., White, J., Cablewski, T., Werkmeister, J., Haylock, D. and Meagher, L., ACS Chemical Biology 2010, DOI: 10.1021/cb100100u). These cells are typically cultured in media supplemented with 10% foetal bovine serum and the cytokines interleukin-3, GM-CSF or TPO (as per Naparstek, E., Pierce, J., Metcalf, D., Shadduck, R., Ihle, J., Leder, A., Sakakeeny, M. A., Wagner, K., Falco, J., Fitzgerald, T. J. and Greenberger, J. S., Blood 1986, 67, 1395-1403). In the absence of either of these factors, FDCP-1 cells rapidly undergo apoptosis (usually within 24 hours). FD-Mpl cells were maintained in DMEM medium with 10% foetal calf serum (FCS) and supplemented with 30 ng/mL of recombinant human TPO (rhTPO, Apollo Cytokine Research). For the antagonist assay, FD-Mpl cells were harvested by centrifugation and the resulting cell pellet was thoroughly washed, twice, with 10 mL PBS to remove residual cytokine. The cells were then resuspended in 5 mL of cell culture medium without rhTPO and incubated at 37° C. for 1 h (or 2 h in the case of the agonist assay; Note: short term withdrawal of rhTPO enhances up-regulation of the TPO receptor, c-Mpl). FD-Mpl cells were counted and resuspended in a mix of cell culture medium with added peptide of interest and incubated at 4° C. for 2 h (for the agonist assay this brief incubation at 4° C. for 2 h was omitted). Following this incubation, cells were supplemented with low doses of TPO (either 6 or 10 ng/mL of rhTPO) and plated at 5000 cells/well/100 μL medium in a 96-well tissue culture plate. […]
Cells were then incubated at 37° C. for 24 hours (or 48 hours in the case of the agonist assay) and cell proliferation was assessed as follows. Cells were plated in quadruplicate onto white luminescence detection plates and cell proliferation and viability were assessed by an ATP-luminescence detection assay (CellTiter Glo Luminescent Cell Viability Assay Kit, Promega). Cells were also plated in triplicate and cell morphology was assessed using phase contrast microscopy.
For the antagonist assay, the cell numbers determined via the luminescence assay were normalised by the cell numbers obtained for FD-Mpl cells cultured in either 6 or 10 ng/mL of rhTPO without added peptide and plotted as a function of the peptide concentration (see FIGS. 1a and b). […] For the agonist assay used with the LCP-PD peptide, the cell numbers were normalised by the cell numbers obtained with media supplemented with 30 ng/mL rhTPO and expressed as a percentage. […]

Row | SMILES | EC50 [1] [µM] | efficacy with respect to cell proliferation (agonist assay) ([2]; FD-Mpl cells, normalised by cell numbers with 30 ng/mL rhTPO) [%] | EC50 ([2]; murine FD-Mpl cells, 48 hours, read-out: concentration at which increased cell proliferation was observed (agonist assay)) [µM] | agonist activity at the c-Mpl receptor (in words) ([2]; FD-Mpl cells)
1 | CC[C@H](C)[C@@H]1NC(=O)[C@H](C)NC(=O)[C@@H](NC(=O)[C@H](C)NC(C)=O)CSSC[C@@H](C(=O)N[C@@H](C)C(=O)O)NC(=O)[C@H](C)NC(=O)[C@H](C)NC(=O)[C@H](CCCNC(=N)N)NC(=O)[C@H](C)NC(=O)[C@H](C)NC(=O)[C@H](CC(C)C)NC(=O)[C@H](Cc2c[nH]c3ccccc23)NC(=O)[C@H](CCC(N)=O)NC(=O)[C@H](CCCNC(=N)N)NC(=O)[C@H](CC(C)C)NC(=O)[C@H]([C@@H](C)O)NC(=O)[C@@H]2CCCN2C(=O)CNC(=O)[C@H](CCC(=O)O)NC1=O [LCP] (Ac-ACAIEGPTLRQWLAARAACA-OH; disulfide 2-19; C-terminus assumed) | ~3 | 40 | ~0.06 | 
2 | CC(=O)N[C@@H](C)C(=O)N[C@H]1CSSC[C@H](NC(=O)[C@H](C)NC(C)=O)C(=O)N[C@@H](C)C(=O)N[C@@H](C)C(=O)N[C@@H](C)C(=O)N[C@@H](CC(C)C)C(=O)N[C@@H](CCCNC(=N)N)C(=O)N[C@@H](CCC(N)=O)C(=O)N[C@@H](Cc2c[nH]c3ccccc23)C(=O)N[C@@H](CC(C)C)C(=O)N[C@@H](C)C(=O)N[C@@H](C)C(=O)N[C@@H](C)C(=O)N[C@H](C(=O)N[C@@H](C)C(=O)O)CSSC[C@@H](C(=O)N[C@@H](C)C(=O)O)NC(=O)[C@H](C)NC(=O)[C@H](C)NC(=O)[C@H](C)NC(=O)[C@H](CC(C)C)NC(=O)[C@H](Cc2c[nH]c3ccccc23)NC(=O)[C@H](CCC(N)=O)NC(=O)[C@H](CCCNC(=N)N)NC(=O)[C@H](CC(C)C)NC(=O)[C@H](C)NC(=O)[C@H](C)NC(=O)[C@H](C)NC1=O [MCP-PD] (I: Ac-ACAAALRQWLAAACA-OH / II: Ac-ACAAALRQWLAAACA-OH; disulfide I:2-II:2, I:14-II:14; C-terminus assumed) |  |  |  | reasonably potent agonist
3 | CC(=O)N[C@@H](C)C(=O)N[C@H]1CSSC[C@@H](C(=O)N[C@@H](C)C(=O)O)NC(=O)[C@H](C)NC(=O)[C@H](C)NC(=O)[C@H](C)NC(=O)[C@H](CC(C)C)NC(=O)[C@H](Cc2c[nH]c3ccccc23)NC(=O)[C@H](CCC(N)=O)NC(=O)[C@H](CCCNC(=N)N)NC(=O)[C@H](CC(C)C)NC(=O)[C@H](C)NC(=O)[C@H](C)NC(=O)[C@H](C)NC1=O [Example 2, AcACAAALRQWLAAACA] (Ac-ACAAALRQWLAAACA-OH; disulfide 2-14) | 20 to 30 |  |  | 
4 | CC[C@H](C)[C@@H]1NC(=O)[C@H](C)NC(=O)[C@@H](NC(=O)[C@H](C)NC(C)=O)CSSC[C@H](NC(=O)[C@H](C)NC(C)=O)C(=O)N[C@@H](C)C(=O)N[C@@H]([C@@H](C)CC)C(=O)N[C@@H](CCC(=O)O)C(=O)NCC(=O)N2CCC[C@H]2C(=O)N[C@@H]([C@@H](C)O)C(=O)N[C@@H](CC(C)C)C(=O)N[C@@H](CCCNC(=N)N)C(=O)N[C@@H](CCC(N)=O)C(=O)N[C@@H](Cc2c[nH]c3ccccc23)C(=O)N[C@@H](CC(C)C)C(=O)N[C@@H](C)C(=O)N[C@@H](C)C(=O)N[C@@H](CCCNC(=N)N)C(=O)N[C@@H](C)C(=O)N[C@@H](C)C(=O)N[C@H](C(=O)N[C@@H](C)C(=O)O)CSSC[C@@H](C(=O)N[C@@H](C)C(=O)O)NC(=O)[C@H](C)NC(=O)[C@H](C)NC(=O)[C@H](CCCNC(=N)N)NC(=O)[C@H](C)NC(=O)[C@H](C)NC(=O)[C@H](CC(C)C)NC(=O)[C@H](Cc2c[nH]c3ccccc23)NC(=O)[C@H](CCC(N)=O)NC(=O)[C@H](CCCNC(=N)N)NC(=O)[C@H](CC(C)C)NC(=O)[C@H]([C@@H](C)O)NC(=O)[C@@H]2CCCN2C(=O)CNC(=O)[C@H](CCC(=O)O)NC1=O [LCP-PD] (I: Ac-ACAIEGPTLRQWLAARAACA-OH / II: Ac-ACAIEGPTLRQWLAARAACA-OH; disulfide I:2-II:2, I:19-II:19; C-terminus assumed) |  |  |  | potent agonist
